The values that follow are results of earlier work, collected in patent publication US10183097B2, “Engineered cardiac derived compositions and methods of use” (THE JOHNS HOPKINS UNIVERSITY, priority 2013, dated 2019).

Structures are written as SMILES.

The subject of this data set is NRVM. The following applies: inventors' previous NRVM study with myofibroblasts; agent added separately.
Consider `Cc1ccc2c(c1)C(=O)C1(O)CCN(c3ccccc3)C1=N2` (stereo not drawn) [blebbistatin], for which the “electrophysiological suppression of conduction” value (“electrophysiological suppression” for short) is on record as “relieved the electrophysiological suppression of conduction” and the severity of arrhythmia result is reported as “reduced the severity of arrhythmia”.
`[H]/N=C(/N)N[C@H]1[C@H](O)[C@@H](O)[C@H](O[C@@H]2O[C@@H](C)[C@](O)(C=O)[C@H]2O[C@@H]2O[C@@H](CO)[C@H](O)[C@@H](O)[C@@H]2NC)[C@@H](N/C(N)=N\[H])[C@@H]1O` [streptomycin]: the “electrophysiological suppression” value is “relieved the electrophysiological suppression of conduction” and the severity of arrhythmia result is listed as “reduced the severity of arrhythmia”.
On to `[Gd]` [gadolinium], for which the “electrophysiological suppression” value was “relieved the electrophysiological suppression of conduction” and the severity of arrhythmia result is listed as “reduced the severity of arrhythmia”.
